The record followed here is article PMC5152921, “Evolutionary and Functional Diversification of the Vitamin D Receptor-Lithocholic Acid Partnership” (PLoS ONE, 2016).

pKi: −log10 of the molar value.

The target of one experiment is T1, Skate VDR (Leucoraja erinacea, UniProt A0A088GDQ7).
T1 sequence (A0A088GDQ7 1-434): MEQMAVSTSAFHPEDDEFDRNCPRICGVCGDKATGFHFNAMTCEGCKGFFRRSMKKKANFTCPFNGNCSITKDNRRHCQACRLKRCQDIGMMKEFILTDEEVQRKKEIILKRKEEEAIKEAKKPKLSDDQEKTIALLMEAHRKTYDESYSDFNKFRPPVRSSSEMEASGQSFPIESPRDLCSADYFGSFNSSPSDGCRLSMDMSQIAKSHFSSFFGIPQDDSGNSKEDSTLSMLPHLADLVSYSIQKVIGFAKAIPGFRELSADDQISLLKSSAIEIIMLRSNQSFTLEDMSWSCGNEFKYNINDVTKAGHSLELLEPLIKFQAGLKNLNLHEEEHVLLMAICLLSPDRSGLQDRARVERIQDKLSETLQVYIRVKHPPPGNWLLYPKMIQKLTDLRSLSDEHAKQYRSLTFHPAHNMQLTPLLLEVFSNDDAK
T1 sequence (P19793 1-462 partner): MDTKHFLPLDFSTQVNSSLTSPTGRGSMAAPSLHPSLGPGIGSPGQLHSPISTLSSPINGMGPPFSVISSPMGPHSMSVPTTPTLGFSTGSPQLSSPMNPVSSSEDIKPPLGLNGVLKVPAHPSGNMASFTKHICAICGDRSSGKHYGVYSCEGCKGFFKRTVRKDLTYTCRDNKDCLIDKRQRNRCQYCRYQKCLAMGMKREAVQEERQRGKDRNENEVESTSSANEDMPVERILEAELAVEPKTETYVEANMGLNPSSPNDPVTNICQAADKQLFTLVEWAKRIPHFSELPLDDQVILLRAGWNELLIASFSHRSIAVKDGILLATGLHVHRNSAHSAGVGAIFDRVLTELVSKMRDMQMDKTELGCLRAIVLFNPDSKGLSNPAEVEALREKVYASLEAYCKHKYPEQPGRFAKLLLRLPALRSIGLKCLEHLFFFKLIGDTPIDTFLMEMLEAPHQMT
Briefly: Mammalian 2-hybrid assay (VDR-coregulator interaction, HepG2). It counts as cell-based. The following applies: 100 μM LCA. The source says:
(§1) Prey constructs included full-length VDRs fused to the herpes simplex VP16 activation domain (pVP16-VDR). Bait constructs consisted of either full-length wild-type human RXR (pM-RXRWT), a truncated human RXR mutant (pM-RXRAF2), or the defined NR box of each member of the SRC/p160 family (pM-SRC1_241-386, pM-GRIP1_479-767, or pM-ACTR392-1005) fused to the yeast Gal4 DNA-binding domain. Reporters included the Gal4 luciferase reporter (5xGal4-TATA-Luc) and pRL-CMV as an internal luciferase control.
(§2) HepG2 cells were seeded into 96-well tissue culture plates as described above and transfected with Lipofectamine 2000 the following day. Each well received 33.6 ng pVP16-VDR, 33.6 ng pM-coregulator (where indicated), 126.6 ng 5XGal4-TATA-Luc, and 3 ng pRL-CMV. […] Positive controls were treated with 1,25D3 and vehicle controls were treated with ethanol. Luciferase activity was measured 24 hours post-exposure using the Dual-Glo Luciferase Assay System described above. Raw luciferase data were normalized to the pRL-CMV luciferase control. VDR-coregulator response was normalized to the pVP16-VDR in the absence of bait constructs. Results were analyzed using a two-way ANOVA followed by Bonferroni’s multiple comparisons test in Prism (GraphPad Inc, San Diego, CA). All experiments were replicated 3 times and conducted as groups of 4 replicate wells.

For another experiment, the target named is T2, Medaka VDRβ (Oryzias latipes, UniProt B2CCA1).
T2 sequence (B2CCA1 1-425): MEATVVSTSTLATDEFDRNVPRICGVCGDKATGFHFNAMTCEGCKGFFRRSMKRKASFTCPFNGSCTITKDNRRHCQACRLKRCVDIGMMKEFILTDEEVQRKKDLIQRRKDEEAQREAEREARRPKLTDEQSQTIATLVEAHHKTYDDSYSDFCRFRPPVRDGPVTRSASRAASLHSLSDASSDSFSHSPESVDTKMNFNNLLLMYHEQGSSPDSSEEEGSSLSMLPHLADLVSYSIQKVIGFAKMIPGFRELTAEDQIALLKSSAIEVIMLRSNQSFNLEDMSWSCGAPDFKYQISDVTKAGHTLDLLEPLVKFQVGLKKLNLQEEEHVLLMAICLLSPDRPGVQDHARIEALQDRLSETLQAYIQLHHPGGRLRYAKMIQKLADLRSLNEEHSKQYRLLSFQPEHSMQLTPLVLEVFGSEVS
T2 sequence (P19793 1-462 partner): T1 sequence (P19793 1-462 partner)
Described as above. The settings on record: 100 μM LCA. It counts as cell-based.
Excerpt: as §1, §2

The target in a further experiment is T3, Lamprey VDR (Petromyzon marinus, UniProt Q7ZZY9).
T3 sequence (Q7ZZY9 1-406): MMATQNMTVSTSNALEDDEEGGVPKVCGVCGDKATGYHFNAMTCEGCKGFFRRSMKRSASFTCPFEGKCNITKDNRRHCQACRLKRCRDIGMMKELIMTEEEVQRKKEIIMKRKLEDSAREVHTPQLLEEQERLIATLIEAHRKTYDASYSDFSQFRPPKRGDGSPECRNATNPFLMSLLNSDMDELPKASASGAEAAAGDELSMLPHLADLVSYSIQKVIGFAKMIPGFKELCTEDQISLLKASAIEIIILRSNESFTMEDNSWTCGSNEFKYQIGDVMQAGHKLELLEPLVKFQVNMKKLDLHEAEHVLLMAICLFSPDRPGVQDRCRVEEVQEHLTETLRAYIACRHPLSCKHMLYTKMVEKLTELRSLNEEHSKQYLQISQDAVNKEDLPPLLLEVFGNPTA
T3 sequence (P19793 1-462 partner): T1 sequence (P19793 1-462 partner)
The description is as above. It counts as cell-based. The following applies: 100 μM LCA.
Excerpt: as §1, §2

For experiment [1], the target named is all VDR orthologs/paralogs tested. Briefly: Competitive ligand binding assays, all receptors together. The settings on record: range over all eight VDR orthologs/paralogs.
Protocol: Recombinant VDR and human RXRWT lysates were prepared from transfected COS7 cells (American Type Culture Collection #CRL-1651) as described in detail previously [32, 33]. Lysates were diluted 10-fold in ice-cold assay buffer (10 mM Tris HCl, 150 mM KCl, 1 mM EDTA, 0.3 mM ZnCl2, 5 mM DTT, and 1x protease inhibitor cocktail (100 μM AEBSF, 80 nM aprotinin, 5 μM bestatin, 1.5 μM E-64 (for cysteine proteases), 2 μM leupeptin, 1 μM pepstatin A), pH 7.5). […] Reactions were shaken to mix and incubated for 18 hours at 4°C. Bound and free ligand were separated with the addition of 80 μL of ice-cold separation buffer (2.5% (w/v) activated charcoal, 0.5% (w/v) dextran, 100 mM Na2HPO4, 39 mM NaH2PO4, 150 mM NaCl, 15 mM NaN3, 10% gelatin, pH 7.0), and incubated at 4°C for 15 minutes with shaking every 5 minutes. Reactions were centrifuged at 5,000 x g for 5 minutes at 4°C, and 200 μL of the supernatant containing the VDR-bound ligands was removed for scintillation counting.
Total binding was determined using lysate from cells transfected with VDR, and nonspecific binding was determined using lysate from cells transfected with the empty pSG5 vector. Specific binding was determined by subtracting non-specific binding counts from the total binding counts.
Where [2] appears, read: any of the SRC/p160 coactivators.
The mark [3] stands for this setting: bait human RXRWT, presence and absence of SRC1.

As for `C[C@H](CCC(=O)O)[C@H]1CC[C@H]2[C@@H]3CC[C@@H]4C[C@H](O)CC[C@]4(C)[C@H]3CC[C@]12C` [LCA, 5β-cholanic acid-3α-ol], the VDR-SRC/p160 coactivator interaction result on Skate VDR (setting [2]) and at Lamprey VDR (setting [2]) was “No protein-protein interaction was observed” each time. For the same compound, the “VDR-RXRWT interaction (heterodimerization)” value on Skate VDR (setting [3]) was “not observed”; on Medaka VDRβ (bait human RXRWT), “Robust and significant VDR-RXRWT interactions”; at Lamprey VDR (setting [3]) it was “not observed”. The VDR-SRC1 interaction entry at Medaka VDRβ (cotransfection of RXRWT) is recorded as “strong VDR-SRC1 interactions”. For the same compound, the pKi in experiment [1] was 5.02 to 5.38.

In general, pKi refers to the Ki on a negative log10 scale, so that one unit is a factor of ten. The low end stands for a large Ki, the high end for a small Ki.
